Assay results as given in ChEMBL document CHEMBL5316374, “Forrestiacids E-K: Further [4 + 2]-Type Triterpene-Diterpene Hybrids as Potential ACL Inhibitors from the Vulnerable Conifer Pseudotsuga forrestii” (J Nat Prod, 2023).

Target: T1, ATP-citrate synthase (Homo sapiens, UniProt P53396)
T1 sequence (P53396 whole entry): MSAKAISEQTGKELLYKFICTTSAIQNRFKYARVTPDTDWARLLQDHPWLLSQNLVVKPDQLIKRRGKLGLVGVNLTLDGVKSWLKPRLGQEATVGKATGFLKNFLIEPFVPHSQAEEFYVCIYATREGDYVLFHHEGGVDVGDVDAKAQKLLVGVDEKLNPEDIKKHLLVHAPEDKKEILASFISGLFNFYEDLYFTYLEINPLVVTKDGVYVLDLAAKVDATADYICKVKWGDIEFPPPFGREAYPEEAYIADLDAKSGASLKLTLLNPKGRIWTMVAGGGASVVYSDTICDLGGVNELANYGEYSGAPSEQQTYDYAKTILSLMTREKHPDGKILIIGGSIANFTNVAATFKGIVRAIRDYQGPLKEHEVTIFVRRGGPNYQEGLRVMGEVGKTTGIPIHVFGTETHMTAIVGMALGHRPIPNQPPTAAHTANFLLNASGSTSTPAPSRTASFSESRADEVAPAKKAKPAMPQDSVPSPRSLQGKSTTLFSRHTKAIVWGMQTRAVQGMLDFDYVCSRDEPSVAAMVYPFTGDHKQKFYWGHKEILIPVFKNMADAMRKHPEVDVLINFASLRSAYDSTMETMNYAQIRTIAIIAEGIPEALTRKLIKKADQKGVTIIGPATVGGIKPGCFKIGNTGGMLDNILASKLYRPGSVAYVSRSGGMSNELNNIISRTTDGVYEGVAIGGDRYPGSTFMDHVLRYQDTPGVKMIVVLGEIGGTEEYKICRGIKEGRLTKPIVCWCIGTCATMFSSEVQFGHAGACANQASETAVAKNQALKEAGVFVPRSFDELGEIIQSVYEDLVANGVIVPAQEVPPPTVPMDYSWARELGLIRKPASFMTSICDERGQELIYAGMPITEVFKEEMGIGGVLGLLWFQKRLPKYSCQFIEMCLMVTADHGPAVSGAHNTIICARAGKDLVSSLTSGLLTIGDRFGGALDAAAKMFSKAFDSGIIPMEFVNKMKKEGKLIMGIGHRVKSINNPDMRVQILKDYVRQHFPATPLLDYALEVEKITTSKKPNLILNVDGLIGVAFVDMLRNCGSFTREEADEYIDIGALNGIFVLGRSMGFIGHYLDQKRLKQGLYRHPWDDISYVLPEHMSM
Test: Inhibition of ACL (unknown origin) incubated for 30 mins in presence of ATP by luminescence based ADP-Glo kinase assay

IC50 | Structure (SMILES)
0.46 µM | COc1ccc(-c2ccccc2)cc1NS(=O)(=O)c1cc(Cl)cc(Cl)c1O
> 40 µM | CC(C)C1=CC[C@H]2C(=C1)CC[C@@H]1[C@]2(C)CCC[C@@]1(C)C(=O)O
3.3 µM | C=C1CC[C@@](C)([C@H](C)CC(=O)C[C@@]2(C(=O)O)C[C@H]3C[C@@H]4[C@@]5(C)CCC[C@@](C)(C(=O)O)[C@@H]5CC[C@]42C=C3C(C)C)[C@@]12CCC1=C2CC[C@@H]2[C@@H]1CCC(=O)C2(C)C
11 µM | C=C1CC[C@@](C)([C@H](C)CC(=O)C[C@](C)(C(=O)O)[C@]2(C(=C)C)C=C3CC[C@@H]4[C@](C)(CCC[C@@]4(C)C(=O)O)[C@H]3CC2)[C@@]12CCC1=C2CC[C@H]2C(C)(C)C(=O)CC[C@]12C
1.8 µM | C=C1CC[C@@](C)([C@H](C)CC(=O)C[C@]2(C(=O)O)C[C@H]3C[C@@H]4[C@@]5(C)CCC[C@@](C)(C(=O)O)[C@@H]5CC[C@]42C=C3C(C)C)[C@@]12CCC1=C2CC[C@@H]2[C@@H]1CCC(=O)C2(C)C
4.1 µM | C=C1CC[C@@](C)([C@H](C)CC(=O)[C@H]2[C@H]3C[C@@H]4[C@@]5(C)CCC[C@@](C)(C(=O)O)[C@@H]5CC[C@@]4(C=C3C(C)C)[C@]2(C)C(=O)O)[C@@]12CCC1=C2CC[C@H]2C(C)(C)C(=O)CC[C@]12C
6.2 µM | CC(C)C1=C[C@@]23CC[C@@H]4[C@](C)(CCC[C@@]4(C)C(=O)O)[C@H]2C[C@@H]1[C@H](C(=O)C[C@@H](C)[C@H]1CC[C@@]2(C)C4=C(CC[C@]12C)[C@H]1CCC(=O)C(C)(C)[C@@H]1CC4)[C@@]3(C)C(=O)O
34.9 µM | C=C1CC[C@@H]([C@H](C)CC(=O)/C=C(\C)C(=O)O)[C@@]12CCC1=C2CC[C@H]2C(C)(C)C(=O)CC[C@]12C
7.1 µM | C=C1CC[C@@](C)([C@H](C)CC(=O)C[C@]2(C(=O)O)C[C@H]3C[C@@H]4[C@@]5(C)CCC[C@@](C)(C(=O)O)[C@@H]5CC[C@]42C=C3C(C)C)[C@@]12CCC1=C2CC[C@@H]2[C@@H]1CC[C@H](O)C2(C)C
22.8 µM | C=C1CC[C@@](C)([C@H](C)CC(=O)C[C@@](C)(C(=O)O)[C@]2(C(=C)C)C=C3CC[C@@H]4[C@](C)(CCC[C@@]4(C)C(=O)O)[C@H]3CC2)[C@@]12CCC1=C2CC[C@H]2C(C)(C)C(=O)CC[C@]12C
2.6 µM | CC(C)C1=C[C@@]23CC[C@@H]4[C@](C)(CCC[C@@]4(C)C(=O)O)[C@H]2C[C@@H]1C[C@@]3(CC(=O)C[C@@H](C)[C@H]1CC[C@@]2(C)C3=C(CC[C@]12C)[C@H]1CCC(=O)C(C)(C)[C@@H]1CC3)C(=O)O
3.6 µM | C=C1CC[C@@](C)([C@H](C)CC(=O)[C@@H]2[C@H]3C[C@@H]4[C@@]5(C)CCC[C@@](C)(C(=O)O)[C@@H]5CC[C@@]4(C=C3C(C)C)[C@@]2(C)C(=O)O)[C@@]12CCC1=C2CC[C@H]2C(C)(C)C(=O)CC[C@]12C
10.8 µM | C=C1CC[C@@](C)([C@H](C)CC(=O)[C@H]2[C@H]3C[C@@H]4[C@@]5(C)CCC[C@@](C)(C(=O)O)[C@@H]5CC[C@]45C(OC(=O)[C@]25C)C3=C(C)C)[C@@]12CCC1=C2CC[C@H]2C(C)(C)C(=O)CC[C@]12C
